Experimental data from patent publication US8193172B2, “Methods for the treatment of major depressive disorder using glucocorticoid receptor antagonists” (Pop Test Cortisol LLC, priority 2001, dated 2012).
Where two headings read alike, the source gives them in different places.

Tests used:
[1] = system: Major Depressive Disorder patients; test: Double blind, 4 week, paroxetine controlled study of Org 34517 in depressed patients (HAMD-21, afternoon cortisol test); type: in vivo; conditions: daily dose 150-300 mg, oral, FIG. 1
Procedure: A double blind, 4 week, paroxetine controlled study of Org 34517 in depressed patients was carried out. Paroxetine is a selective serotonin re-uptake inhibitor which is recognized as an effective antidepressant for major depression.
Patients were randomly allocated to one of three treatment groups. Group I patients (50 patients) received 2 capsules with 75 mg of Org 34517 and one placebo (total daily dose 150 mg) for the first 2 weeks and 2 capsules with 75 mg Org 34517 and 1 capsule with 150 mg (total daily dose 300 mg) the next 2 weeks; Group II patients (46 patients) received 3 capsules with 150 mg Org 34517 (total daily dose 450 mg) in the first 2 weeks and 4 capsules of Org 34517 (total daily dose 600 mg) in the next 2 weeks; Group III patients (44 patients) received 2 capsules with 10 mg paroxetine and one placebo capsule (total daily dose 20 mg) for the first 2 weeks, followed by 2 capsules of 10 mg and one capsule of 20 mg paroxetine (total daily dose 40 mg) in the next 2 weeks. Medication was administered orally in the morning. Efficacy assessment was done on days 4, 7, 10, 14, 21, 28 and 35 by using the 21-item HAMD scale.
The cortisol levels were determined using the afternoon cortisol test (ACT) as described by Halbreich et al. [J. Clin. Endocrinol. Metab. (1982) 54 (6), 1262].

[2] = system: psychosis associated with psychotic major depression; conditions: mifepristone 8-12 mg/kg/day over 4 days; cited from earlier work
[3] = system: psychosis associated with psychotic major depression; conditions: cited from earlier work

| Structure (SMILES) | p of correlation between HAMD-21 change and cortisol (ACT) change ([1]; HAMD-21 change scored at day 14, cortisol change at 28 days) | clinical improvement (HAMD decrease) in relation to cortisol change [1] | effect in the treatment of psychosis associated with psychotic major depression [2] | change in Brief Psychiatric Rating Scale ([3]; daily dose 50 mg) [%] | change in Brief Psychiatric Rating Scale ([3]; daily dose 600 mg) [%] | change in Brief Psychiatric Rating Scale ([3]; daily dose 1200 mg) [%] |
| --- | --- | --- | --- | --- | --- | --- |
| CC#C[C@]1(O)CC[C@H]2[C@@H]3CCC4=CC(=O)CCC4=C3[C@@H](c3ccc4c(c3)OCO4)C[C@@]21C [Org 34517, (11β,17β)-11-(1,3-benzodioxol-5-yl)-17-hydroxy-17-(1-propynyl)estra-4,9-dien-3-one] | 0.02 | most prominent clinical improvement (HAMD decrease) is seen in patients were cortisol is not increased | – | – | – | – |
| CC#C[C@]1(O)CC[C@H]2[C@@H]3CCC4=CC(=O)CCC4=C3[C@@H](c3ccc(N(C)C)cc3)C[C@@]21C [mifepristone, 17β-hydroxy-11β-(4-dimethylaminophenyl)-17α-(1-propynyl)estra-4,9-dien-3-one] | – | – | effective | 33 | 40 | 52 |
